Assay [1] relates to H1299 non-small cell lung carcinoma cells. Put plainly: caspase activation in lysates of treated cells (apoptosis). Format: cell-based. Conditions: H1299 cancer cell line; 16 hr incubation; positive = 1.5-fold (150%) of dimethyl sulfoxide control. As to the method:
(§1) H1299 non-small cell lung carcinoma cells, C33A cervical carcinoma cells, Mrc-5 normal lung fibroblasts (American Type Culture Collection, Manassas, Va. USA) and HMEC normal mammary epithelial cells (Clonetics San Diego, Calif., USA) were maintained in media recommended by the American Type Culture Collection. Cells were harvested and suspended at 2.5–5×10^5 cells/ml in media. A 45 μL aliquot of cell suspension was added to each well of a 96-well microtiter plate (PerkinElmer Life Sciences Inc, Boston, Mass. USA). Cells were incubated overnight in a 5% CO2-95% humidity incubator at 37° C. and then, 5 μL of a 10% dimethyl sulfoxide (Sigma-Aldrich Inc., St. Louis, Mo. USA) solution containing various concentrations of Compound 79 or 5 μL of 10% dimethyl sulfoxide (solvent control) were added. The plates were further incubated for 16 hr. […]
(§2) The reaction was then filtered using Sephadex G-10 Poly-Prep chromatography column (Amersham Biosciences, Inc, Piscataway, N.J., USA). […] The number of radioactive counts per minute (cpm) in each well of the sample plate was measured using a liquid scintillation counter (PerkinElmer Life Sciences Inc, Boston, Mass. USA). The potency of caspase cascade activation was determined by the percentage increase in cpm in wells compared to cells treated only with dimethyl sulfoxide.

Assay [2] has as its system C33A cervical carcinoma cells. Described as above. Conditions: C33A cancer cell line; 16 hr incubation; positive = 1.5-fold (150%) of dimethyl sulfoxide control. Format: cell-based. Here is the method: as §1, §2

In the case of `COC1=CC(c2ccc[nH]2)=N/C1=C/c1cc2ccccc2[nH]1` [Compound 79, 4-methoxy-5-(1H-indol-2yl-methylene)-2,2′-bi-1H-pyrrole], the “Concentration Required for Positive Caspase Activation” value in assay [1] amounted to 250 µM; in assay [2] it was 125 µM.

These data come from US7144912B2, “Pyrrole-type compounds, compositions, and methods for treating cancer, treating viral diseases and causing immunosuppression” (Gemin X Biotechnologies Inc., priority 2001, dated 2006).
